Reference: paper PMC9204602, “Optimized Anchor-Modified Peptides Targeting Mutated RAS Are Promising Candidates for Immunotherapy” (Frontiers in Immunology, 2022)
No end group written: not given here.

molecular target: HLA-A*11:01 (Homo sapiens, UniProt P04439, A114D/D185E/E176A/F33Y/L180Q/S129P/T187R); test: Cell-based competitive MHC-I-binding assay, CJO-A lymphoblastoid cells; settings: not given

Row | Compound | IC50
1 | VVVGARGVGK | 4.61e-05 M
2 | VVVGAAGVGK | 7.03e-06 M
3 | CC[C@H](C)[C@H](NC(=O)[C@@H](N)CO)C(=O)N[C@H](C(=O)N1CCC[C@H]1C(=O)N[C@@H](CO)C(=O)NCC(=O)N1CCC[C@H]1C(=O)N[C@@H](CC(C)C)C(=O)N[C@@H](CCCCN)C(=O)O)[C@@H](C)CC [Flu-MP 13-21, reference compound] | 1.44e-06 M
4 | VVGAAGVGK | 1.12e-05 M

same assay, conditions: Table S2; […], competition with 500 nM FITC-labelled KVFPK(FITC)ALINK, serum-free RPMI, 4 hours, 37°C, peptide from 100 µM, flow cytometry; analyzed three times, mean; read-out: EC/IC50 (M) Binding assay: IC50, HLA-A*11:01

Row | Compound | IC50
5 | CC(C)[C@H](N)C(=O)N[C@H](C(=O)N[C@H](C(=O)NCC(=O)N[C@@H](C)C(=O)N[C@@H](CO)C(=O)NCC(=O)N[C@H](C(=O)NCC(=O)N[C@@H](CCCCN)C(=O)O)C(C)C)C(C)C)C(C)C | 1.02e-05 M
6 | CC(C)[C@H](N)C(=O)N[C@H](C(=O)NCC(=O)N[C@@H](C)C(=O)N[C@@H](CO)C(=O)NCC(=O)N[C@H](C(=O)NCC(=O)N[C@@H](CCCCN)C(=O)O)C(C)C)C(C)C | 1.27e-05 M
7 | VVGARGVGK | 0.000157 M

tested on: transgenic humanized HLA-A2/DR1 mice; test: Immunization of transgenic humanized HLA-A2/DR1 mice, ex vivo splenocyte stimulation; assay type: in vivo, mouse; settings: 100 μg peptide s.c. days 0, 14, 21 with 25 μg Poly I:C and 10 μg Pan-DR peptide; splenocytes one week after third injection restimulated overnight with 10 μg/mL peptide, intracellular IFN-γ; 5 mice

Row | Compound | CD8+ T cells in the spleen reacting to the minimal L2-9-mer peptide
8 | MTEYKL L VVGA V GV GKSALTIQLIQNHFVDE [31-mer G12V peptide] | about 8%

same assay, conditions: same immunization; HLA-A*02:01-positive/G12V-positive CFPAC-1, overnight incubation, intracellular IFN-γ

Row | Compound | Recognition of CFPAC-1 cells by CD8+ T cells of immunized mice
9 | MTEYKL L VVGA V GV GKSALTIQLIQNHFVDE [31-mer G12V peptide] | recognized

same assay, conditions: same immunization; ex vivo restimulation with WT-9-mer

Row | Compound | Recognition of the wild-type peptide by CD8+ T cells of immunized mice
10 | MTEYKL L VVGA V GV GKSALTIQLIQNHFVDE [31-mer G12V peptide] | did not recognize

same assay, conditions: same immunization; ex vivo restimulation with original 9-mer

Row | Compound | Share of L2-9-mer-reactive CD8+ T cells that also reacted to the original 9-mer epitope
11 | MTEYKL L VVGA V GV GKSALTIQLIQNHFVDE [31-mer G12V peptide] | half

molecular target: HLA-A*03:01 (Homo sapiens, UniProt P04439); test: not given; assay type: binding; settings: not given

Row | Compound | EC50
12 | VVVGARGVGK | 69.7 µM
13 | CC[C@H](C)[C@H](N)C(=O)N[C@@H](CC(C)C)C(=O)N[C@@H](CCCNC(=N)N)C(=O)NCC(=O)N[C@@H](CO)C(=O)N[C@H](C(=O)N[C@@H](C)C(=O)N[C@@H](Cc1c[nH]cn1)C(=O)N[C@@H](CCCCN)C(=O)O)C(C)C [Flu-NP 265-273, reference compound] | 6.33 µM
14 | VVVGAAGVGK | 94 µM
15 | VVGAAGVGK | 277 µM

molecular target: HLA-A*02:01 (Homo sapiens, UniProt P04439, D140Y/D185E/D98H/E176V/E277Q/G131W/G231S/I119V/I121R/I166T/I218V/L300P/L318F/N151K/N90K/P208A/P217A/Q86G/Q94H/R138H/R169H/T345S); test: MHC-I stabilization assay, TAP-deficient T2 cells; assay type: binding; settings: not given

Row | Compound | EC50
16 | KLVVVGASGV | 72 µM
17 | LVVVGASGV | 581 µM
18 | KLVVVGARGV | 151 µM
19 | YLVVGARGV | 15.6 µM
20 | LVVVGARGV | 429 µM
21 | CC(C)C[C@H](NC(=O)[C@@H](N)CCCCN)C(=O)N[C@H](C(=O)N[C@H](C(=O)N[C@H](C(=O)NCC(=O)N[C@@H](C)C(=O)N[C@@H](C)C(=O)NCC(=O)N[C@H](C(=O)O)C(C)C)C(C)C)C(C)C)C(C)C | 50.2 µM
22 | YLVVGASGV | 21.2 µM

same assay, conditions: Table 1; T2 cells, HLA-A*02:01 stabilization, serum-free RPMI, 4 hours, 37°C, peptide from 100 µM in at least 8 serial dilution steps, flow cytometry MFI (BB7.2); half-maximal MFI; analyzed three times, mean; read-out: EC50 (µM) Binding assay

Row | Compound | EC50
23 | YLVVGADGV | 13.4 µM
24 | YLVVVGAAGV | 27.7 µM
25 | YLVVGACGV | 26.1 µM
26 | LLVVGAVGV | 25.6 µM
27 | YLVVVGAVGV | 15.5 µM
28 | LLVVGACGV | 73.5 µM
29 | LVVVGADGV | 453 µM
30 | YVVVGAAGV | 117 µM
31 | YVVVGASGV | 207 µM
32 | LLVVGAAGV | 17.5 µM
33 | YLVVGAAGV | 16.4 µM
34 | YLVVVGASGV | 10.7 µM
35 | LVVVGACGV | 619 µM
36 | YVVVGARGV | 51.6 µM
37 | YVVVGAVGV | 28.3 µM
38 | YLVVVGADGV | 5.68 µM
39 | LLVVGADGV | 83.4 µM
40 | LLVVGASGV | 90.6 µM
41 | YVVVGACGV | 138 µM
42 | YLVVGAVGV | 22.9 µM
43 | LVVVGAAGV | 191 µM
44 | LLVVGARGV | 23.7 µM
45 | YLVVVGACGV | 95.5 µM
46 | YVVVGADGV | 199 µM
